Results from the supplement of paper PMC10307832.

Compound: Cn1nnc2c(C(N)=O)ncn2c1=O [Temozolomide]
Experiment: relative viability (nuclei count vs DMSO), 5 days (fraction); higher = more cells survive
In short: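 MetaXpress counted nuclei in 4× images of lung cancer cell lines that had been fixed, permeabilised and Hoechst-stained in one step. Before that, cells in 1536-well plates were kept overnight at 37 °C, pinned with five √10-spaced library-drug doses on vehicle-anchored plates, and cultured 5 days without medium change. Viability takes treated-well nuclei over vehicle-well nuclei and uses the median across plates. Plates were accepted only at control CV below 25% and at least one doubling.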

Cell Line | relative viability (0.2 µM) | relative viability (0.6325 µM) | relative viability (2 µM) | relative viability (6.325 µM) | relative viability (20 µM)
201T | 0.978 | 1 | 1.01 | 0.961 | 0.977
A549 | 1.04 | 1.02 | 0.986 | 0.913 | 0.998
A-427 | 1.04 | 0.996 | 1.03 | 0.713 | 0.46
ABC-1 | 1.07 | 0.925 | 1.08 | 0.958 | 1.02
BEN | 0.956 | 0.94 | 1.03 | 0.813 | 0.766
CAL-12T | 0.908 | 1.04 | 0.959 | 0.95 | 0.95
COR-L23 | 1.19 | 1.04 | 1.05 | 1.04 | 0.955
COR-L 105 | 0.895 | 1.02 | 0.993 | 0.883 | 0.507
Calu-6 | 1.08 | 1 | 1.07 | 0.954 | 0.99
ChaGo-K-1 | 1.06 | 0.983 | 1.08 | 0.933 | 0.928
EBC-1 | 0.997 | 1.01 | 1.06 | 0.917 | 1.09
EKVX | 0.618 | 0.97 | 0.967 | 0.921 | 0.66
EMC-BAC-2 | 1.07 | 1.07 | 1.03 | 0.943 | 1
EPLC-272H | 0.98 | 0.972 | 0.997 | 0.859 | 0.677
H3255 |  | 0.96 | 0.993 | 0.884 | 0.231
HARA | 0.979 | 1.02 | 1.05 | 0.886 | 0.831
HCC-15 | 1.12 | 1.01 | 1 | 0.996 | 1.07
HCC-44 | 1.02 | 0.986 | 0.987 | 0.999 | 1.01
HCC-78 | 0.762 | 0.937 | 1.04 | 0.906 | 0.931
HCC-366 | 0.939 | 1 | 1.08 | 0.987 | 0.992
HCC-827 | 1.08 | 1.05 | 1.05 | 1 | 0.177
HOP-62 | 1.11 | 0.997 | 1.04 | 0.926 | 1.01
IA-LM | 1.11 | 0.94 | 1 | 0.961 | 0.951
LC-2-ad | 1.06 | 1.09 | 1.04 | 0.971 | 0.78
LCLC-97TM1 | 1.15 | 0.985 | 0.764 | 0.83 | 1.1
LCLC-103H | 0.995 | 1 | 1.06 | 0.928 | 0.92
LK-2 | 0.997 | 1.06 | 0.961 | 0.645 | 0.407

Cell Line | relative viability (0.2 µM) | relative viability (0.6325 µM) | relative viability (2 µM) | relative viability (6.325 µM) | relative viability (20 µM)
LOU-NH91 | 0.856 | 0.979 | 0.993 | 0.926 | 0.786
LU99A | 1.06 | 0.946 | 1.03 | 0.97 | 1.03
LXF-289 | 1.04 | 0.959 | 1.01 | 1.03 | 0.892
NCI-H23 | 1.2 | 1.03 | 0.994 | 0.909 | 0.993
NCI-H322M |  | 0.931 | 1 | 0.957 | 0.577
NCI-H358 | 0.855 | 1.02 | 1 | 0.904 | 0.777
NCI-H441 | 1.25 | 1.06 | 1.29 | 0.997 | 1.15
NCI-H460 | 1.02 | 0.998 | 1 | 1.03 | 1.1
NCI-H520 | 1.06 | 0.999 | 1.13 | 0.981 | 0.97
NCI-H522 | 0.842 | 0.985 | 1.02 | 0.998 | 0.915
NCI-H596 | 0.932 | 0.953 | 1.01 | 0.925 | 0.959
NCI-H647 | 1 | 1.01 | 0.906 | 0.684 | 0.265
NCI-H650 | 1.01 | 0.975 | 1.02 | 0.974 | 0.913
NCI-H661 | 0.993 | 0.935 | 1.04 | 0.947 | 0.843
NCI-H727 | 0.83 | 0.923 | 1.13 | 0.798 | 0.805
NCI-H838 | 0.948 | 1.02 | 1.02 | 0.928 | 0.986
NCI-H1299 | 1.03 | 1.04 | 1.07 | 1.03 | 1.03
NCI-H1355 | 1.01 | 0.985 | 1.06 | 0.947 | 0.982
NCI-H1395 | 1 | 0.96 | 0.906 | 0.745 | 0.867
NCI-H1437 | 0.998 | 1.01 | 0.997 | 1.04 | 1.02
NCI-H1563 | 0.903 | 0.937 | 0.999 | 0.99 | 0.993
NCI-H1623 |  | 1.18 | 1.04 | 0.979 | 0.66
NCI-H1648 |  | 0.889 | 0.903 | 0.746 | 0.893
NCI-H1650 | 0.955 | 0.938 | 0.933 | 0.952 | 0.773
NCI-H1651 | 0.983 | 0.997 | 0.984 | 0.997 | 0.993
NCI-H1666 | 0.92 | 0.994 | 0.906 | 0.751 | 0.76
NCI-H1734 | 1.12 | 1.05 | 1.06 | 0.932 | 0.976

Cell Line | relative viability (0.2 µM) | relative viability (0.6325 µM) | relative viability (2 µM) | relative viability (6.325 µM) | relative viability (20 µM)
NCI-H1755 | 1.08 | 0.971 | 1.04 | 0.965 | 0.818
NCI-H1792 | 1.22 | 1.02 | 1.07 | 0.854 | 1.07
NCI-H1793 |  | 0.919 | 0.918 | 0.87 | 0.636
NCI-H1915 | 1.09 | 0.987 | 0.946 | 0.602 | 0.386
NCI-H1944 | 0.946 | 0.959 | 1.04 | 0.919 | 0.816
NCI-H1975 | 1.01 | 1.01 | 1.09 | 0.919 | 0.957
NCI-H1993 | 0.866 | 0.968 | 0.953 | 0.944 | 0.758
NCI-H2009 | 1.05 | 1.01 | 1.05 | 0.923 | 1.06
NCI-H2023 | 0.979 | 0.943 | 1.01 | 0.984 | 0.941
NCI-H2085 | 1 | 1.02 | 1.02 | 0.964 | 0.949
NCI-H2087 | 1.31 | 1.12 | 1.07 | 0.937 | 1.01
NCI-H2126 | 0.957 | 1.03 | 1.05 | 0.98 | 1.03
NCI-H2170 |  | 1.06 | 1 | 0.858 | 0.582
NCI-H2228 | 1.19 | 0.928 | 1.15 | 0.881 | 1.05
NCI-H2342 | 0.827 | 0.991 | 1.06 | 1.03 | 0.912
NCI-H2347 | 1.06 | 1.16 | 1.08 | 0.979 | 0.976
NCI-H2405 | 1.05 | 1 | 1.06 | 0.935 | 0.978
NCI-H3122 | 1.02 | 1.03 | 1.06 | 0.945 | 0.97
PC-3 [JPC-3] | 0.954 | 1.08 | 1.09 | 1.06 | 0.451
PC-14 | 1.07 | 1.03 | 0.994 | 0.944 | 0.529
RERF-LC-KJ | 0.982 | 1 | 1.04 | 0.978 | 1.01
SK-LU-1 | 1.09 | 1.03 | 0.899 | 0.554 | 0.467
SK-MES-1 | 1.13 | 1.02 | 1.06 | 1.05 | 0.889
SW 900 | 1.07 | 1.1 | 0.984 | 0.772 | 0.793
SW 1573 | 0.998 | 0.992 | 1.07 | 0.948 | 0.971
UMC-11 | 0.994 | 1.06 | 1.05 | 0.858 | 0.677
